From patent publication US20230257396A1, “MACROCYCLES AND THEIR USE” (BLOSSOMHILL THERAPEUTICS, INC., priority 2020, published 2023)

Experiments:
Experiment in all cases: KINOMEscan kinase binding assay (Eurofins/DiscoveRx), % Ctrl
[1] = molecular target: T1, kinases (Homo sapiens, UniProt P00519, Q252H)
T1 construct: purchased Eurofins/DiscoveRx; host or cells: E. coli BL21-derived host (T7 phage display) for most kinases; HEK-293 for the rest
Outline: (§1)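 Competition binding, 1 h RT: phage-tagged or HEK-293-expressed DNA-tagged kinase + immobilized ligand + compound. Eluate kinase by qPCR. % Ctrl = (test − positive ctrl)/(negative ctrl − positive ctrl) × 100; lower means stronger binding.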

[2] = molecular target: T2, kinases (Homo sapiens, UniProt P35916)
T2 construct: purchased Eurofins/DiscoveRx; host or cells: E. coli BL21-derived host (T7 phage display) for most kinases; HEK-293 for the rest
Outline: as §1

[3] = test system: kinases
Outline: as §1

[4] = molecular target: T3, kinases (Homo sapiens, UniProt P10721)
T3 construct: purchased Eurofins/DiscoveRx; host or cells: E. coli BL21-derived host (T7 phage display) for most kinases; HEK-293 for the rest
Outline: as §1

[5] = molecular target: T4, kinases (Homo sapiens, UniProt P36888, R834Q)
T4 construct: purchased Eurofins/DiscoveRx; host or cells: E. coli BL21-derived host (T7 phage display) for most kinases; HEK-293 for the rest
T4 sequence (P36888 27-993 R834Q): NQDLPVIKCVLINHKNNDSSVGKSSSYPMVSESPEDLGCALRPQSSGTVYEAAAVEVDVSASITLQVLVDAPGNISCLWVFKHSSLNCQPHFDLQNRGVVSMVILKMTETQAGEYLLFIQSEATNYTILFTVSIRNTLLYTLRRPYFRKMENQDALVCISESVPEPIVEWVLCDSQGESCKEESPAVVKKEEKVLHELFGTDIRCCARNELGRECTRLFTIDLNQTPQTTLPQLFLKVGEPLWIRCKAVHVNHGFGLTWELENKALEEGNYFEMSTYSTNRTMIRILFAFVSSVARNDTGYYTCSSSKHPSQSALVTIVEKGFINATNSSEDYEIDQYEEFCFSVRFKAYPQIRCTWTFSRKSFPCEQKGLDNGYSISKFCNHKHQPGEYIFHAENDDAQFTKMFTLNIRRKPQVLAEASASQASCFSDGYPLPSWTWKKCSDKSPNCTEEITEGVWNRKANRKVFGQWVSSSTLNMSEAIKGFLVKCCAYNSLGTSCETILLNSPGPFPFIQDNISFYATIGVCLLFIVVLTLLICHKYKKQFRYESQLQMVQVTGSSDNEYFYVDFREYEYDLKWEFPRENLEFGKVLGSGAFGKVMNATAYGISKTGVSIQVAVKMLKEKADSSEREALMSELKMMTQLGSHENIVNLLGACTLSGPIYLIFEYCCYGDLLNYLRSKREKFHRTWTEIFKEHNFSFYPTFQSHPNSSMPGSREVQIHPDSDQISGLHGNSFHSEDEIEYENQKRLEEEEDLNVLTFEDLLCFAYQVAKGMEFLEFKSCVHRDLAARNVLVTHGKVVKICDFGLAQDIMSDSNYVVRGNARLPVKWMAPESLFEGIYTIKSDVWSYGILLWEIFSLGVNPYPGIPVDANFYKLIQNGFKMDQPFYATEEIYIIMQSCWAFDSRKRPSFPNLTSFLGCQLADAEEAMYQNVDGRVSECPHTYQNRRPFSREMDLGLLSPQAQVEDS
Outline: as §1

[6] = molecular target: T5, kinases (Homo sapiens, UniProt P00533)
T5 construct: purchased Eurofins/DiscoveRx; host or cells: E. coli BL21-derived host (T7 phage display) for most kinases; HEK-293 for the rest
Outline: as §1

[7] = 1 μM; ABL1(Q252H)-nonphosphorylated
[8] = 1 μM; ABL1(Q252H)-phosphorylated
[9] = 1 μM; EGFR(L747-E749del, A750P)
[10] = 1 μM; EGFR(L747-S752del, P753S)

T5 sequence (P00533 25-1210): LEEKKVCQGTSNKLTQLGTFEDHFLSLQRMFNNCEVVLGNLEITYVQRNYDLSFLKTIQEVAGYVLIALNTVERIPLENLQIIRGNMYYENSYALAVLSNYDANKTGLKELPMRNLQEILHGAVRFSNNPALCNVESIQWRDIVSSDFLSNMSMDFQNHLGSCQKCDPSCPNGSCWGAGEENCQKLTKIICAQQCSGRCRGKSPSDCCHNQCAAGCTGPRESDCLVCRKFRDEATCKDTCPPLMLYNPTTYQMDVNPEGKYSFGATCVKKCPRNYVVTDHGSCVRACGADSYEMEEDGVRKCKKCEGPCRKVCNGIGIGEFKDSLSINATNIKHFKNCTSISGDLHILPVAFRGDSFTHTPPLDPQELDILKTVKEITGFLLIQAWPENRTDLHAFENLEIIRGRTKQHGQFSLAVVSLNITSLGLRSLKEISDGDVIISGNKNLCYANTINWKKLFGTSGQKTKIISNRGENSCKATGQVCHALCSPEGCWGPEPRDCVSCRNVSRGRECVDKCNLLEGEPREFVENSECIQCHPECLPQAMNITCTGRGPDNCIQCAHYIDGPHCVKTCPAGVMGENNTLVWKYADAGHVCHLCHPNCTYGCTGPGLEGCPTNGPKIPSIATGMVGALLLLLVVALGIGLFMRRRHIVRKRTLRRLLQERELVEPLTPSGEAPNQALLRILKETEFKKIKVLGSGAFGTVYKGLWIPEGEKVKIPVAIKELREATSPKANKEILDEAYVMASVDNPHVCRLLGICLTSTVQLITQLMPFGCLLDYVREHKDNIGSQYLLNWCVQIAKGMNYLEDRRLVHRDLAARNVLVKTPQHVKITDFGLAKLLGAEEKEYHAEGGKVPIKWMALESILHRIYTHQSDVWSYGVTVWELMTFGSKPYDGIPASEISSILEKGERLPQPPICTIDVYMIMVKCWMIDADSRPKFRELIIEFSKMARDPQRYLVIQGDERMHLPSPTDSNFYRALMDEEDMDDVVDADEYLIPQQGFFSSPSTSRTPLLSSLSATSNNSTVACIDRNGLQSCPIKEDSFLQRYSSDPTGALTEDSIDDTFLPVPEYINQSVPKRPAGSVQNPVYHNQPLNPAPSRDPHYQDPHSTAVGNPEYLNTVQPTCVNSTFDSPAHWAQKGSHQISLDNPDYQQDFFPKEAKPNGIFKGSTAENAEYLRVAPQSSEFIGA
T3 sequence (P10721 26-976): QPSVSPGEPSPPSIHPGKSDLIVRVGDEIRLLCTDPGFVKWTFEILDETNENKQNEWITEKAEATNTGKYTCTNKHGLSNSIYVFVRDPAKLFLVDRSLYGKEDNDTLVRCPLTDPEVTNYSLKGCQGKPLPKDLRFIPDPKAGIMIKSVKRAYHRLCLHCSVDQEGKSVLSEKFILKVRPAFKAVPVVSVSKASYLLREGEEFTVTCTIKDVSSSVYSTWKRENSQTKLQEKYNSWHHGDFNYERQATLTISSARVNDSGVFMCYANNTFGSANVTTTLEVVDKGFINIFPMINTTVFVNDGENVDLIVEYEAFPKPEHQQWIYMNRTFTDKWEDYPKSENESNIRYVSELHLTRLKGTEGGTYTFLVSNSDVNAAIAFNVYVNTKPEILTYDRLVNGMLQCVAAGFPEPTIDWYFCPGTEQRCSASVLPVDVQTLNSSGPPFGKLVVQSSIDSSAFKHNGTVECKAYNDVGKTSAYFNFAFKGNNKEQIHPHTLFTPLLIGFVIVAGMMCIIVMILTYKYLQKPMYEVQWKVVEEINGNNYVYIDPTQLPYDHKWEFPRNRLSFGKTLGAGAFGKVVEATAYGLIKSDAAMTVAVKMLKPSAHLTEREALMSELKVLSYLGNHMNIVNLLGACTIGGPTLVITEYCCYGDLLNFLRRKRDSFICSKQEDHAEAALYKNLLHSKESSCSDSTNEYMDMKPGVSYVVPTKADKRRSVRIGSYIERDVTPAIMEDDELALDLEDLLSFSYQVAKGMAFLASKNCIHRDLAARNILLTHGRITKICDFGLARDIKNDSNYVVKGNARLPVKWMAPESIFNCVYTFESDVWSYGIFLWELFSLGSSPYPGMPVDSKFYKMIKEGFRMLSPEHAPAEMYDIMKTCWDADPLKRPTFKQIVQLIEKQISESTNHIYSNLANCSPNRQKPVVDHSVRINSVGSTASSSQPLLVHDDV
T2 sequence (P35916 25-1363): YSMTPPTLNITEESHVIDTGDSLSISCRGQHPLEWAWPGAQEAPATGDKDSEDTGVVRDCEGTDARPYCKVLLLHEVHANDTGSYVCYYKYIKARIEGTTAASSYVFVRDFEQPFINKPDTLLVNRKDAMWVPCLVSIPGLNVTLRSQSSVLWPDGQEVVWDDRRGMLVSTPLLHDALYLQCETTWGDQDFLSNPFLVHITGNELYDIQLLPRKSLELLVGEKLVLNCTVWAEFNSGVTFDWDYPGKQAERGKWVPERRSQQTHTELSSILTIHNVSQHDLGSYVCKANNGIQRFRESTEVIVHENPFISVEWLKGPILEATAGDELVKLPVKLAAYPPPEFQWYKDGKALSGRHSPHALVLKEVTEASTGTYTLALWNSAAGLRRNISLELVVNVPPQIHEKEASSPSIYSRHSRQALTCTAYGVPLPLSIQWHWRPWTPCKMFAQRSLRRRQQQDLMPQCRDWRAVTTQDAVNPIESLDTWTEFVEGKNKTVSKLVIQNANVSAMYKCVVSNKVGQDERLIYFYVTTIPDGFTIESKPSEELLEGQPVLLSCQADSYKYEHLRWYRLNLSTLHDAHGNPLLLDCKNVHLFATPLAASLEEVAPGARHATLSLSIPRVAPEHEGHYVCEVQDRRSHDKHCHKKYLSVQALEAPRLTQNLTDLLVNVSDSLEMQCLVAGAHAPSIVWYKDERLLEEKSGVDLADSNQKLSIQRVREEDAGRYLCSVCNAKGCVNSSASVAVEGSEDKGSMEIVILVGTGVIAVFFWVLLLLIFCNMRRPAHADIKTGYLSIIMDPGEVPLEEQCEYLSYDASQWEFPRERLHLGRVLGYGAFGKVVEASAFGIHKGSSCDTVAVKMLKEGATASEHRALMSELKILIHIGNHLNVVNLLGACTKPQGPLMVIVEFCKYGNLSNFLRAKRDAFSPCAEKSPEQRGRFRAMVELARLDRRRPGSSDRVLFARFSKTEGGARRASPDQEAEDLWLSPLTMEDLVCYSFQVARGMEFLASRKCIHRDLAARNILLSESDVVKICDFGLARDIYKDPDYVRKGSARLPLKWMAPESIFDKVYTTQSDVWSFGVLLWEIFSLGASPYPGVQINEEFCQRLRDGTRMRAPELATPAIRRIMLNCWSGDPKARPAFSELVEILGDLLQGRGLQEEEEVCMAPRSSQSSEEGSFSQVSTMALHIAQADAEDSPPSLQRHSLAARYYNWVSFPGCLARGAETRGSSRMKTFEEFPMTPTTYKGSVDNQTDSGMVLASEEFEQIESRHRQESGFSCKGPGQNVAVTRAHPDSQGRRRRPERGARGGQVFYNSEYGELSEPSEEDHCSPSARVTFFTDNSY

Structure (SMILES)	% Ctrl, ABL1(Q252H)-nonphosphorylated [1, 7]	% Ctrl, ABL1(Q252H)-phosphorylated [1, 8]	% Ctrl, FLT4 ([2]; 1 μM; FLT4)	% Ctrl, EGFR(L747-E749del, A750P) [3, 9]	% Ctrl, EGFR(L747-S752del, P753S) [3, 10]	% Ctrl, EGFR(L747-T751del, Sins) ([3]; 1 μM; EGFR(L747-T751del, Sins))	% Ctrl, FLT3(ITD) ([3]; 1 μM; FLT3(ITD))	% Ctrl, FLT3(ITD, D835V) ([3]; 1 μM; FLT3(ITD, D835V))	% Ctrl, FLT3(ITD, F691L) ([3]; 1 μM; FLT3(ITD, F691L))	% Ctrl, KIT ([4]; 1 μM; KIT)	% Ctrl, KIT-autoinhibited ([4]; 1 μM; KIT-autoinhibited)	% Ctrl, FLT3(R834Q) ([5]; 1 μM; FLT3(R834Q))	% Ctrl, EGFR ([6]; 1 μM; EGFR)	also measured
Cc1cc2c([nH]1)/C=C1\C(=O)Nc3cnc(nc31)N(C)CCCOCCN(C)C2=O [Ex.71, [17a(18)Z]-2,5,12-trimethyl-6,7,9,10,11,12-hexahydro-1H-13,15-(azenometheno)dipyrrolo[3,2-f:3′,4′-i][1,4,11,13]oxatriazacyclohexadecine-4,17(5H,16H)-dione]	97 % Ctrl	100 % Ctrl	95 % Ctrl	92 % Ctrl	100 % Ctrl	67 % Ctrl	91 % Ctrl	100 % Ctrl	100 % Ctrl	100 % Ctrl	100 % Ctrl	100 % Ctrl	95 % Ctrl	–
Cc1cc2c([nH]1)/C=C1\C(=O)Nc3cc(Cl)c(cc31)OCCO[C@@H](C(=O)N1CCN(C)CC1)CN(C)C2=O [Ex. 138, [7R,16a(17)Z]-19-chloro-2,5-dimethyl-7-(4-methylpipearazine-1-carbonyl)-6,7,9,10-tetrahydro-1H-12,14-(ethanediylidene)dipyrrolo[3,2-i:3′,4′-l][1,4,7]dioxazacyclopentadecine-4,16(5H,15H)-dione]	–	–	–	–	–	–	–	–	–	–	–	–	–	% Ctrl, ABL1(Q252H)-nonphosphorylated ([1]; target ABL1(Q252H)-nonphosphorylated; 1 μM): 100 % Ctrl; % Ctrl, ABL1(Q252H)-phosphorylated ([1]; target ABL1(Q252H)-phosphorylated; 1 μM): 98 % Ctrl; % Ctrl, FLT4 ([2]; target FLT4; 1 μM): 97 % Ctrl; % Ctrl, EGFR(L747-E749del, A750P) ([3]; target EGFR(L747-E749del, A750P); 1 μM): 100 % Ctrl; % Ctrl, EGFR(L747-S752del, P753S) ([3]; target EGFR(L747-S752del, P753S); 1 μM): 61 % Ctrl; % Ctrl, EGFR(L747-T751del, Sins) ([3]; target EGFR(L747-T751del, Sins); 1 μM): 96 % Ctrl; % Ctrl, FLT3(ITD) ([3]; target FLT3(ITD); 1 μM): 73 % Ctrl; % Ctrl, FLT3(ITD, D835V) ([3]; target FLT3(ITD, D835V); 1 μM): 24 % Ctrl; % Ctrl, FLT3(ITD, F691L) ([3]; target FLT3(ITD, F691L); 1 μM): 49 % Ctrl; % Ctrl, KIT-autoinhibited ([4]; target KIT-autoinhibited; 1 μM): 96 % Ctrl; % Ctrl, KIT ([4]; target KIT; 1 μM): 90 % Ctrl; % Ctrl, FLT3(R834Q) ([5]; target FLT3(R834Q); 1 μM): 99 % Ctrl; % Ctrl, EGFR ([6]; target EGFR; 1 μM): 76 % Ctrl
Cc1cc2c([nH]1)/C=C1\C(=O)Nc3ccc(cc31)-c1cnn(C)c1COCCN(C)C2=O [Ex. 124, [3a(4)Z]-6,9,14-trimethyl-10,11,13,14-tetrahydro-2H-1,17-(ethanediylidene)pyrazolo[4,3-m]dipyrrolo[3,2-f:3′,4′-i][1,4]oxazacyclopentadecine-3,8(5H,9H)-dione]	0 % Ctrl	0 % Ctrl	0.15 % Ctrl	25 % Ctrl	37 % Ctrl	57 % Ctrl	0 % Ctrl	0 % Ctrl	0.65 % Ctrl	45 % Ctrl	93 % Ctrl	0 % Ctrl	50 % Ctrl	–
Cc1cc2c([nH]1)/C=C1\C(=O)Nc3ccc(cc31)-c1c(noc1C(C)C)COCCN(C)C2=O [Ex. 161, [3a(4)Z]-9-methyl-16-(propan-2-yl)-10,11-dihydro-2H,13H-1,17-(ethanediylidene)[1,2]oxazolo[4,3-m]dipyrrolo[3,2-f:3′,4′-i][1,4]oxazacyclopentadecine-3,8(5H,9H)-dione]	–	–	–	–	–	–	–	–	–	–	–	–	–	% Ctrl, ABL1(Q252H)-nonphosphorylated ([1]; 1 μM; target ABL1(Q252H)-nonphosphorylated): 100 % Ctrl; % Ctrl, ABL1(Q252H)-phosphorylated ([1]; 1 μM; target ABL1(Q252H)-phosphorylated): 79 % Ctrl; % Ctrl, FLT4 ([2]; 1 μM; target FLT4): 79 % Ctrl; % Ctrl, EGFR(L747-E749del, A750P) ([3]; 1 μM; target EGFR(L747-E749del, A750P)): 100 % Ctrl; % Ctrl, EGFR(L747-S752del, P753S) ([3]; 1 μM; target EGFR(L747-S752del, P753S)): 80 % Ctrl; % Ctrl, EGFR(L747-T751del, Sins) ([3]; 1 μM; target EGFR(L747-T751del, Sins)): 93 % Ctrl; % Ctrl, FLT3(ITD) ([3]; 1 μM; target FLT3(ITD)): 85 % Ctrl; % Ctrl, FLT3(ITD, D835V) ([3]; 1 μM; target FLT3(ITD, D835V)): 83 % Ctrl; % Ctrl, FLT3(ITD, F691L) ([3]; 1 μM; target FLT3(ITD, F691L)): 82 % Ctrl; % Ctrl, KIT ([4]; 1 μM; target KIT): 98 % Ctrl; % Ctrl, KIT-autoinhibited ([4]; 1 μM; target KIT-autoinhibited): 100 % Ctrl; % Ctrl, FLT3(R834Q) ([5]; 1 μM; target FLT3(R834Q)): 100 % Ctrl; % Ctrl, EGFR ([6]; 1 μM; target EGFR): 73 % Ctrl
Cc1cc2c([nH]1)/C=C1\C(=O)Nc3ccc(cc31)-c1cnn(C)c1CN(C)CCN(C)C2=O [Ex. 126, [3a(4)Z]-6,9,12,14-tetramethyl-9,10,11,12,13,14-hexahydro-1,17-(ethanediylidene)pyrazolo[4,3-m]dipyrrolo[3,2-f:3′,4′-i][1,4]diazacyclopentadecine-3,8(2H,5H)-dione]	1.7 % Ctrl	0.75 % Ctrl	0 % Ctrl	1.8 % Ctrl	14 % Ctrl	27 % Ctrl	0.4 % Ctrl	0 % Ctrl	2.5 % Ctrl	6.3 % Ctrl	84 % Ctrl	0 % Ctrl	23 % Ctrl	–
Cc1cc2c([nH]1)/C=C1\C(=O)Nc3cc(Cl)c(cc31)OCCO[C@@H](C(=O)N(C)C)CN(C)C2=O [Ex. 137, [7R,16a(17)Z]-19-chloro-N,N,2,5-tetramethyl-4,16-dioxo-4,5,6,7,9,10,15,16-octahydro-1H-12,14-(ethanediylidene)dipyrrolo[3,2-i:3′,4′-l][1,4,7]dioxazacyclopentadecine-7-carboxamide]	48 % Ctrl	51 % Ctrl	95 % Ctrl	100 % Ctrl	100 % Ctrl	100 % Ctrl	44 % Ctrl	9.1 % Ctrl	29 % Ctrl	90 % Ctrl	72 % Ctrl	65 % Ctrl	100 % Ctrl	–
